According to patent US10555987B2, “GHRH agonists for the treatment of ischemic disorders” (UNIVERSITY OF MIAMI, priority 2012, dated 2020):
Non-standard residues stand in square brackets, D forms with d. Residues, ends and D or L forms follow the SMILES beside them. NMeY = CN[C@@H](Cc1ccc(O)cc1)C(=O)O; Nle = CCCC[C@H](N)C(=O)O; Orn = NCCC[C@H](N)C(=O)O; Abu = CC[C@H](N)C(=O)O; Aoc = NCCCCCCCC(=O)O

What was measured:
[1] = system: myocardial infarction (Fisher-344 rats); experiment: Hemodynamic analysis (pressure-volume loops), body and heart weight after MI, compared to JI-38 (Example 15, Table 16); assay type: in vivo, rat; design: key to ESP (End-Systolic Pressure) / EDP (End-Diastolic Pressure) / ESV (End-Systolic Volume) / PRSW (Preload Recruitable Stroke Work) / Ees (End-systolic Elastance) / dP/dt max (peak rate of the pressure rise) / dP/dt max_EDV / dP/dt min / TAU (relaxation time constant calculated by Weiss method) / SV (Stroke Volume) / CO (Cardiac Output) / SW (Stroke Work) / EF / Ea/Ees / Ea (arterial Elastance): ↓: downward arrow denotes lower than JI-38; ↑: upward arrow denotes greater than JI-38; =denotes same as JI-38; ⬇⬇: double arrow denotes greater effect; ⬆⬆: double arrow denotes greater effect; settings: rat MI model, s.c. twice daily; pressure-volume loops; expressed in comparison to JI-38
Description: Rats were anesthetized by intramuscular injection of a mixture of ketamine (100 mg/kg), xylazine (20 mg/kg) and acepromazine (10 mg/kg). A 2-F micromanometer tipped catheter (SPR-838, Millar Instruments, Houston, Tex.) was inserted into the right carotid artery and advanced retrograde into the left ventricle. Measurements were calibrated by injecting a hypertonic saline (15%) bolus to determine extra-ventricular conductance; relative volume units were converted to actual volume using the cuvette calibration method. All analyses were performed using PVAN 3.0 software (Millar Instruments, Houston, Tex.).
(§1) Myocardial infarction (MI) was induced by permanent ligation of the left coronary artery in female 6-month-old Fisher-344 rats. Following experimental myocardial infarction (MI), rats were randomly assigned to receive either placebo, JI-38, or one of the following new analogs of GHRH: MR-30 l(P-21301), MR-303(P-21303), MR-356(P-20356), MR-502(25502), MR-350(P-20350), MR-36 l(P-20361), MR-367(P-20367), MR-403(P-27403), MR-404(P-27404), and MR-409(P-27409) (10 rats per each group). The GHRH peptide agonists were adminsistered starting 2 hours post-surgery, 1 week, 2 week, and 4 week intervals. All treatment was given subcutaneously twice daily. Cardiac performance was assessed by serial echocardiography and hemodynamic analysis derived from pressure-volume loops as described before.
The hemodynamic studies are shown in FIGS. 16-33 and the results are summarized in Table 16 (results were expressed in comparison to JI-38; downward arrow denotes lower than JI-38; upward arrow denotes greater than JI-38; =denotes same as JI-38; and double arrow denotes greater effect).

[2] = system: myocardial infarction (Fisher-344 rats); experiment: Serial echocardiography after MI, compared to JI-38 (Example 15, Table 15); assay type: in vivo, rat; design: key to LVEDD: Left Ventricular End Diastolic Diameter / LVESD: Left Ventricular End Systolic Diameter / VD: Ventricular Diastole / VS: Ventricular Systole / EF: Ejection Fraction / FS: Fraction Shortening: ↓: downward arrow denotes lower than JI-38; ↑: upward arrow denotes greater than JI-38; =denotes same as JI-38; ⬇⬇: double arrow denotes greater effect; ⬆⬆: double arrow denotes greater effect; settings: in comparison to JI-38
Description: Echocardiographic measurements were obtained at baseline, 2 days, 1, 2 and 4 weeks. Echocardiographic assessments were performed in anesthetized rats (2% isoflurane inhalation) using a Vevo-770 echocardiogram (Visual Sonics Inc., Toronto, Ontario, Canada) equipped with a 17.5-MHz transducer. Cardiac dimensions: LV end diastolic (LVEDD), end systolic (LVESD) diameters and fractional shortening (FS) were recorded from M-mode images using averaged measurements from 3 to 5 consecutive cardiac cycles according to the American Society of Echocardiography. Ejection fraction (EF) was calculated from bi-dimensional long-axis parasternal views taken through the infarcted area. All images were analyzed using Vevo 770 3.0.0 software (Visual Sonics Inc., Toronto, Ontario, Canada).
as §1
The echocardiographic experiments are shown in FIGS. 10-15 and the results are summarized in Table 15 (results were expressed in comparison to JI-38; downward arrow denotes lower than JI-38; upward arrow denotes greater than JI-38; =denotes same as JI-38; and double arrow denotes greater effect).

GH release [3] = experiment: In vivo endocrine activity, GH release after intravenous administration (Table 8); settings: rat, i.v. injection
Description: In vivo tests on endocrine activity of new GHRH agonists (Intravenous administration). For in vivo tests based on intravenous administration, adult male Sprague-Dawley rats were anesthetized with pentobarbital (6 mg/100/g, b.w.), and GHRH agonists were injected 20 minutes after the injection of pentobarbital. Blood samples were taken from the jugular vein (pretreated level), immediately after hGHRH(1-29)NH2 injection (as a control) or after hGHRH analogs injection. Blood samples were taken from the jugular vein 5, 15 and 30 minutes after the injection. The blood samples were centrifuged, plasma was removed and the GH level was measured by ELISA.

GHRH receptor = target: T1, GHRH receptor (Homo sapiens, UniProt Q02643); experiment: GHRH receptor binding, competition with 125I-labeled JV-1-42, human pituitary membrane homogenates (Table 7); design: Normal human pituitaries were purchased from the National Hormone and Peptide Program; tissue National Hormone and Peptide Program (A.F. Parlow, Harbor-UCLA Medical Center, Torrance, Calif.); host or cells: normal human pituitary, membrane fraction; settings: JI-38 = 1, Table 7
T1 sequence (Q02643 23-423): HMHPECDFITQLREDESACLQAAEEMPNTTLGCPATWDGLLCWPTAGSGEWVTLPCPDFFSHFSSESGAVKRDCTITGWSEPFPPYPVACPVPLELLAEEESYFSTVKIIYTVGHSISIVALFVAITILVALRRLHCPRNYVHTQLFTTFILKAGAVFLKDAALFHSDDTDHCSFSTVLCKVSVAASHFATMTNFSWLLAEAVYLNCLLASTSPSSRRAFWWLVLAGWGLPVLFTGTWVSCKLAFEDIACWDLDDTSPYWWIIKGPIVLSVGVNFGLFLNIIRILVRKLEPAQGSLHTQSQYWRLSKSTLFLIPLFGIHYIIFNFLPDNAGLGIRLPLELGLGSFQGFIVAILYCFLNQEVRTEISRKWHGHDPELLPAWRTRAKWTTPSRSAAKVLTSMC
Description: Normal human pituitaries were purchased from the National Hormone and Peptide Program (A.F. Parlow, Los Angeles, County Harbor-UCLA Medical Center, Torrance, Calif.).

GH release [4] = experiment: In vivo endocrine activity, GH release after subcutaneous administration (Table 9); settings: rat, subcutaneous (s.c.) injection
Description: Subcutaneous Administration. Adult male rats were used and anesthetized with pentobarbital (6 mg/100 g, b.w.), by i.p. injection. […] Blood samples were taken from the jugular vein 5, 15 and/or 30 minutes after the injection. The blood samples were centrifuged, plasma was removed and the GH level was measured byELISA. The results are summarized in terms of potency in Table 9.

SMILES	CO (Cardiac Output) [1]	EDP (End-Diastolic Pressure) [1]	EF [1]	ESP (End-Systolic Pressure) [1]	ESV (End-Systolic Volume) [1]	Ea (arterial Elastance) [1]	Ea/Ees [1]	Ees (End-systolic Elastance) [1]	PRSW (Preload Recruitable Stroke Work) [1]	SV (Stroke Volume) [1]	SW (Stroke Work) [1]	TAU (relaxation time constant calculated by Weiss method) [1]	dP/dt max (peak rate of the pressure rise) [1]	dP/dt max_EDV [1]	dP/dt min [1]	EF: Ejection Fraction [2]	FS: Fraction Shortening [2]	LVEDD: Left Ventricular End Diastolic Diameter [2]	LVESD: Left Ventricular End Systolic Diameter [2]	VD: Ventricular Diastole [2]	also measured
CCCC[C@H](NC(=O)[C@@H](NC(=O)[C@H](CC(=O)O)NC(=O)[C@H](CCC(N)=O)NC(=O)[C@H](CC(C)C)NC(=O)[C@H](CC(C)C)NC(=O)[C@H](CCCN)NC(=O)[C@H](CCCNC(=N)N)NC(=O)[C@H](C)NC(=O)[C@H](CO)NC(=O)[C@H](CC(C)C)NC(=O)[C@H](CCC(N)=O)NC(=O)[C@H](CC)NC(=O)[C@H](CC(C)C)NC(=O)[C@@H](NC(=O)[C@H](CCCN)NC(=O)[C@H](CCCNC(=N)N)NC(=O)[C@H](Cc1ccc(O)cc1)NC(=O)[C@H](CO)NC(=O)[C@H](CC(N)=O)NC(=O)[C@@H](NC(=O)[C@H](Cc1ccccc1)NC(=O)[C@@H](NC(=O)[C@H](C)NC(=O)[C@H](CC(=O)O)NC(=O)[C@@H](C)NC(=O)[C@H](Cc1ccc(O)cc1)NC)[C@@H](C)CC)[C@@H](C)O)C(C)C)[C@@H](C)CC)C(=O)N[C@@H](CC(=O)O)C(=O)N[C@@H](CCCNC(=N)N)C(=O)NCCCCCCCC(N)=O [Peptide P-21303, [N—Me-Tyr^1, D-Ala^2, Orn^12, Abu^15, Orn^21, Nle^27, Asp^28, Amc^30]hGHRH(1-30)NH2] (H-[NMeY][dA]DAIFTNSYR[Orn]VL[Abu]QLSAR[Orn]LLQDI[Nle]DR[Aoc]-NH2)	=	↑	↑	↓	=	=	=	↓	↓	=	=	=	↓	↓	=	↓	=	=	=	↑	VS: Ventricular Systole [2]: ↑; GH releasing potency in vivo relative to JI-38 (=1) (GH release [3]; 5 min after): 0.79; GH releasing potency in vivo relative to JI-38 (=1) (GH release [3]; 15 min after): 1.14; GH releasing potency in vivo relative to JI-38 (=1) (GH release [3]; 30 min after): 0.81; Relative affinity (Binding potency) vs JI-38 (GHRH receptor): 2.32; GH releasing potency relative to JI-38 (=1) (GH release [4]; 15 min after): 0.95; GH releasing potency relative to JI-38 (=1) (GH release [4]; 30 min after): 1.45
CCCC[C@H](NC(=O)[C@@H](NC(=O)[C@H](CC(=O)O)NC(=O)[C@H](CCC(N)=O)NC(=O)[C@H](CC(C)C)NC(=O)[C@H](CC(C)C)NC(=O)[C@H](CCCN)NC(=O)[C@H](CCCNC(=N)N)NC(=O)[C@H](C)NC(=O)[C@H](CO)NC(=O)[C@H](CC(C)C)NC(=O)[C@H](CCC(N)=O)NC(=O)[C@H](CC)NC(=O)[C@H](CC(C)C)NC(=O)[C@@H](NC(=O)[C@H](CCCN)NC(=O)[C@H](CCCNC(=N)N)NC(=O)[C@H](Cc1ccc(O)cc1)NC(=O)[C@H](CO)NC(=O)[C@H](CC(N)=O)NC(=O)[C@@H](NC(=O)[C@H](Cc1ccccc1)NC(=O)[C@@H](NC(=O)[C@H](C)NC(=O)[C@H](CC(=O)O)NC(=O)[C@H](C)NC(=O)[C@H](Cc1ccc(O)cc1)NC)[C@@H](C)CC)[C@@H](C)O)C(C)C)[C@@H](C)CC)C(=O)N[C@@H](CC(=O)O)C(=O)N[C@@H](CCCNC(=N)N)C(=O)NCCCCCCCC(N)=O [Peptide P-21301, [N—Me-Tyr^1, Orn^12, Abu^15, Orn^21, Nle^27, Asp^28, Amc^30]hGHRH(1-30)NH2] (H-[NMeY]ADAIFTNSYR[Orn]VL[Abu]QLSAR[Orn]LLQDI[Nle]DR[Aoc]-NH2)	=	↑	↓	↓	↑	=	↑	=	=	=	↓	=	↓	↓	=	↓	=	↑	↑	↑	VS: Ventricular Systole [2]: ↑; GH releasing potency in vivo relative to JI-38 (=1) (GH release [3]; 5 min after): 0.79; GH releasing potency in vivo relative to JI-38 (=1) (GH release [3]; 15 min after): 0.92; GH releasing potency in vivo relative to JI-38 (=1) (GH release [3]; 30 min after): 1.00; Relative affinity (Binding potency) vs JI-38 (GHRH receptor): 1.45; GH releasing potency relative to JI-38 (=1) (GH release [4]; 15 min after): 0.41; GH releasing potency relative to JI-38 (=1) (GH release [4]; 30 min after): 0.74
